Results as given in the supplement of paper PMC11208160.

Assay: recombinant barcode read abundance after kanamycin selection (control-corrected) (log10(CPM+1)); higher = more efficient recombination; sequences stand for … in AGTGCAGAGAAAATCGGCCAGTTTTCTCTGCCTGCAGTCCGCATGCCGT…AGATTTATGCAGCGGACTGCCTTTCTCCCAAAGTGATAAACCGGACAGTATCATGGACCGGTTTTCCCGGTAATCCGTATTTGCAAGGTTGGTTTCACT; site = the 11-nt target
Experimental: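 Pooled E. coli target-specificity screen for the IS621 bridge recombinase. Each library plasmid pairs an 11-nt target (CT core) with a bridge RNA whose target-binding loop (9-nt LTG + 4-nt RTG) is reprogrammed; the rest of the 177-nt WT IS621 bridge RNA scaffold is fixed. The plasmid is co-electroporated with a WT donor plasmid; recombinase is induced with 0.1 mM IPTG and recombinants are selected on kanamycin. Recombinant barcodes are sequenced, converted to CPM, averaged over two biological replicates and corrected by the unselected control CPM. Molecule = full bridge RNA written as DNA: LTG = specificity nt 1-9, RTG = reverse complement of specificity nt 8-11, in the WT scaffold.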
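Further: IS621 recombinase and bridge RNA in Escherichia coli cells.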

Sequence | recombinant barcode read abundance (log10)
AAGTGAGCTTGGGTTCTAACCTGTTGCCA (site AAGTGAGCTTG) | 0.408
AAGTGAGCTTGGGTTCTAACCTGTTGCCA (site CTCCTCTCTAT) | 0.0964
AAGTTTACTTGGGTTCTAACCTGTTGCCT (site AAGTTTACTAA) | 0.0435
AAGTTTACTTGGGTTCTAACCTGTTGCCT (site AAGTTTACTAG) | 0.0875
AATAAGACTTGGGTTCTAACCTGTTGCCA (site AATAAGACTTG) | 0.65
AATAAGACTTGGGTTCTAACCTGTTGCCA (site AATAGGACTTA) | 0.134
AATAAGTCTTGGGTTCTAACCTGTTGCAT (site AATAAGTCTAT) | 0.385
AATAAGTCTTGGGTTCTAACCTGTTGCAT (site CTCGCTCCTCA) | 0.0524
AATAGGCCTTGGGTTCTAACCTGTTGCGT (site AATAGGCCTAC) | 1.6
AATAGGCCTTGGGTTCTAACCTGTTGCGT (site AATCGGCCTAC) | 0.163
AATAGGCCTTGGGTTCTAACCTGTTGCGT (site AATGGGCCTAC) | 0.23
AATAGGCCTTGGGTTCTAACCTGTTGCGT (site AATTGGCCTAC) | 0.0726
AATCGCACTTGGGTTCTAACCTGTTGCCT (site AATACCACTAG) | 0
AATCGCACTTGGGTTCTAACCTGTTGCCT (site AATCGCACTAG) | 0.216
AATGCTCCTTGGGTTCTAACCTGTTGCAT (site AATGCTCCTAA) | 0.0259
AATGCTCCTTGGGTTCTAACCTGTTGCAT (site AATGCTCCTAC) | 0.532
AATGCTCCTTGGGTTCTAACCTGTTGCAT (site AATGCTCCTAG) | 0.248
AATGCTCCTTGGGTTCTAACCTGTTGCAT (site AATGCTCCTAT) | 0.533
AATGCTCCTTGGGTTCTAACCTGTTGCCT (site AATGCTCCTAA) | 0.0483
AATGCTCCTTGGGTTCTAACCTGTTGCCT (site AATGCTCCTAC) | 0.158
AATGCTCCTTGGGTTCTAACCTGTTGCCT (site AATGCTCCTAG) | 0.561

Sequence | recombinant barcode read abundance (log10)
AATGCTCCTTGGGTTCTAACCTGTTGCCT (site AATGCTCCTAT) | 0.0129
AATGGGCCTTGGGTTCTAACCTGTTGCGT (site AATAGGCCTAC) | 1.71
AATGGGCCTTGGGTTCTAACCTGTTGCGT (site AATCGGCCTAC) | 0.048
AATGGGCCTTGGGTTCTAACCTGTTGCGT (site AATGGGCCTAC) | 2.4
AATGGGCCTTGGGTTCTAACCTGTTGCGT (site AATTGGCCTAC) | 0.765
AATGGGGCTTGGGTTCTAACCTGTTGCAG (site AATGGGGCTCT) | 2.51
AATGGGGCTTGGGTTCTAACCTGTTGCAG (site CGGCCACCTAA) | 0.185
AATGGGTCTTGGGTTCTAACCTGTTGCTT (site AATGGGTCTAA) | 1.71
AATGGGTCTTGGGTTCTAACCTGTTGCTT (site CCACTAGCTCT) | 0.0323
AATTGGCCTTGGGTTCTAACCTGTTGCGT (site AATAGGCCTAC) | 0.425
AATTGGCCTTGGGTTCTAACCTGTTGCGT (site AATCGGCCTAC) | 0.976
AATTGGCCTTGGGTTCTAACCTGTTGCGT (site AATGGGCCTAC) | 0.376
AATTGGCCTTGGGTTCTAACCTGTTGCGT (site AATTGGCCTAC) | 0.673
ACAAACCCTTGGGTTCTAACCTGTTGCCT (site ACAAAACCTAG) | 0.214
ACAAACCCTTGGGTTCTAACCTGTTGCCT (site ACAAACCCTAG) | 0.812
ACAAACCCTTGGGTTCTAACCTGTTGCCT (site ACAAAGCCTAG) | 0.159
ACAAACCCTTGGGTTCTAACCTGTTGCCT (site ACAAATCCTAG) | 0.0456
ACAAAGCCTTGGGTTCTAACCTGTTGCCT (site ACAAAACCTAG) | 0.49
ACAAAGCCTTGGGTTCTAACCTGTTGCCT (site ACAAACCCTAG) | 0.0556
ACAAAGCCTTGGGTTCTAACCTGTTGCCT (site ACAAAGCCTAG) | 0.85
ACAAAGCCTTGGGTTCTAACCTGTTGCCT (site ACAAATCCTAG) | 0.0552

Sequence | recombinant barcode read abundance (log10)
ACAAATACTTGGGTTCTAACCTGTTGCGG (site ACAAATACTCC) | 0.905
ACAAATACTTGGGTTCTAACCTGTTGCGG (site CGTTCACCTAT) | 0.11
ACAAGCCCTTGGGTTCTAACCTGTTGCCT (site AAAAGCCCTAG) | 0.189
ACAAGCCCTTGGGTTCTAACCTGTTGCCT (site ACAAGCCCTAG) | 0.643
ACAAGCCCTTGGGTTCTAACCTGTTGCCT (site AGAAGCCCTAG) | 0.0546
ACAAGCCCTTGGGTTCTAACCTGTTGCCT (site ATAAGCCCTAG) | 0.0711
ACAAGGCCTTGGGTTCTAACCTGTTGCCT (site ACAAGGCCTAG) | 0.16
ACAAGGCCTTGGGTTCTAACCTGTTGCCT (site CCAAGGCCTAG) | 0.784
ACAAGGCCTTGGGTTCTAACCTGTTGCCT (site GCAAGGCCTAG) | 0.126
ACAAGGCCTTGGGTTCTAACCTGTTGCCT (site TCAAGGCCTAG) | 0.0644
ACAATAGCTTGGGTTCTAACCTGTTGCCT (site ACAATACCTCG) | 0.0732
ACAATAGCTTGGGTTCTAACCTGTTGCCT (site ACAATAGCTAG) | 1.64
ACACAGACTTGGGTTCTAACCTGTTGCGC (site ACAAAGACTGC) | 0.174
ACACAGACTTGGGTTCTAACCTGTTGCGC (site ACACAGACTGC) | 1.08
ACACAGACTTGGGTTCTAACCTGTTGCGC (site ACAGAGACTGC) | 0.114
ACACAGACTTGGGTTCTAACCTGTTGCGC (site ACATAGACTGC) | 0.00702
ACACCCTCTTGGGTTCTAACCTGTTGCTT (site ACACCCTCTAA) | 2.5
ACACCCTCTTGGGTTCTAACCTGTTGCTT (site CGACCCTCTAA) | 0.208
ACAGAATCTTGGGTTCTAACCTGTTGCCT (site ACAGAATCTAG) | 1.69
ACAGAATCTTGGGTTCTAACCTGTTGCCT (site ACAGGATCTAA) | 0.0318
ACAGACGCTTGGGTTCTAACCTGTTGCCT (site ACAGACGCTAG) | 0.721

Sequence | recombinant barcode read abundance (log10)
ACAGACGCTTGGGTTCTAACCTGTTGCCT (site ACAGCCGCTAG) | 0.151
ACAGACGCTTGGGTTCTAACCTGTTGCCT (site ACAGGCGCTAG) | 0.163
ACAGACGCTTGGGTTCTAACCTGTTGCCT (site ACAGTCGCTAG) | 0.0906
ACAGAGACTTGGGTTCTAACCTGTTGCTA (site ACAGAGACTGT) | 0.121
ACAGAGACTTGGGTTCTAACCTGTTGCTA (site ACAGAGACTTA) | 1.35
ACAGTAGCTTGGGTTCTAACCTGTTGCGG (site ACAGTAGCTCC) | 1.81
ACAGTAGCTTGGGTTCTAACCTGTTGCGG (site ACAGTAGCTCG) | 0.248
ACAGTGACTTGGGTTCTAACCTGTTGCCT (site ACAATGACTAG) | 1.23
ACAGTGACTTGGGTTCTAACCTGTTGCCT (site ACAGTGACTAG) | 2.49
ACAGTGGCTTGGGTTCTAACCTGTTGCGG (site ACAGTGGCTCC) | 1.53
ACAGTGGCTTGGGTTCTAACCTGTTGCGG (site CTTCGCCCTAA) | 0.0955
ACAGTGTCTTGGGTTCTAACCTGTTGCGG (site ACAATGTCTCC) | 1.37
ACAGTGTCTTGGGTTCTAACCTGTTGCGG (site ACACTGTCTCC) | 0.0611
ACAGTGTCTTGGGTTCTAACCTGTTGCGG (site ACAGTGTCTCC) | 2.77
ACAGTGTCTTGGGTTCTAACCTGTTGCGG (site ACATTGTCTCC) | 0.324
ACATAAGCTTGGGTTCTAACCTGTTGCTA (site ACATAAGCTTA) | 1.11
ACATAAGCTTGGGTTCTAACCTGTTGCTA (site GGCGGCTCTAG) | 0.18
ACATAGACTTGGGTTCTAACCTGTTGCGC (site ACAAAGACTGC) | 0.084
ACATAGACTTGGGTTCTAACCTGTTGCGC (site ACACAGACTGC) | 0.858
